# Reference: US10538487B2, “Sulfonylureas and related compounds and use of same” (priority 2015, dated 2020)
# Values joined by “and” are separate entries in the source; they are usually repeats but may differ in a detail not shown here. Equal values may be shown once.
# Experiment: Single dose pharmacokinetic study in mice (iv 4 mg/Kg, po 20 mg/Kg), plasma concentration post-dosing
# Format: in vivo, mouse
# Conditions: mouse
# Protocol: This is advantageous leading to comparatively lower doses or less frequent administration. The procedure followed was: Male C57BL/6 mice were used at 7-9 weeks age with 3 animals per group. Mice were dosed with test compound using single intravenous bolus or oral gavage. Blood samples were taken via submandibular or saphenous vein for analysis of plasma concentrations of compound by LC-MS/MS at the following timepoints: IV (3 mice): 0.083, 0.25, 0.5, 1, 2, 4, 8 and 24 hours post dosing, PO (3 mice): 0.25, 0.5, 1, 2, 4, 8 and 24 hours post dosing. LC-MS/MS method for the quantitative determination of test compound in corresponding biological matrix was developed. […] The results are shown graphically in FIGS. 1A to 1C (MCC950) and FIGS. 2A to 2C (MCC7840).
# [1] = IV 4 mg/Kg, individual mice M1-M3, 4 mg/kg
# [2] = PO 20 mg/Kg, individual mice M4-M6, 20 mg/kg
smiles,measurement,setting,value
CC(C)n1ccc(S(=O)(=O)NC(=O)Nc2c3c(cc4c2CCC4)CCC3)n1 [MCC_007840_002],MRT last,"male, C57BL/6, mouse, plasma, po, 20 mg/kg, PO 20 mg/Kg, mean of 3 mice, read-out: MRT0-last, Mean PO",6.43 h
same,half-life,"male, C57BL/6, mouse, plasma, po, 20 mg/kg, PO 20 mg/Kg, mean of 3 mice, read-out: T1/2, Mean PO (converted)",5.02 h
same,Tmax,"male, C57BL/6, mouse, plasma, po, 20 mg/kg, PO 20 mg/Kg, mean of 3 mice, read-out: Tmax, Mean PO",0.25 h
same,bioavailability,"male, C57BL/6, plasma, PO 20 mg/Kg vs IV 4 mg/Kg, Mean PO, read-out: Bioavailability",67.2%
same,"Plasma concentration, IV Time 5 min","IV 4 mg/Kg, 5 min post dosing, individual mice M1-M3, 4 mg/kg",41.9 µg/mL and 38.6 µg/mL
same,"Plasma concentration, IV Time 0.250 h","IV 4 mg/Kg, 0.250 h post dosing, individual mice M1-M3, 4 mg/kg",29.3 µg/mL
same,"Plasma concentration, IV Time 0.500 h","IV 4 mg/Kg, 0.500 h post dosing, individual mice M1-M3, 4 mg/kg",25.2 µg/mL and 24.5 µg/mL
same,"Plasma concentration, IV Time 1.00 h","IV 4 mg/Kg, 1.00 h post dosing, individual mice M1-M3, 4 mg/kg",18.9 µg/mL and 17.2 µg/mL
same,"Plasma concentration, IV Time 2.00 h","IV 4 mg/Kg, 2.00 h post dosing, individual mice M1-M3, 4 mg/kg",14.7 µg/mL and 19.9 µg/mL
same,"Plasma concentration, IV Time 4.00 h","IV 4 mg/Kg, 4.00 h post dosing, individual mice M1-M3, 4 mg/kg",8.55 µg/mL and 8.59 µg/mL
same,"Plasma concentration, IV Time 8.00 h","IV 4 mg/Kg, 8.00 h post dosing, individual mice M1-M3, 4 mg/kg",3.36 µg/mL and 4.44 µg/mL
same,"Plasma concentration, IV Time 24.0 h","IV 4 mg/Kg, 24.0 h post dosing, individual mice M1-M3, 4 mg/kg",0.122 µg/mL and 0.13 µg/mL
same,Tlast,"IV 4 mg/Kg, individual mice M1-M3",24.0 h
same,AUC0-inf,[1],105.283 µg·h/mL and 116.833 µg·h/mL
same,AUC0-last,[1],104.705 µg·h/mL and 116.222 µg·h/mL
same,AUCExtra,[1],0.770% and 0.549% and 0.523%
same,AUMCExtra,[1],5.23% and 3.81% and 3.41%
same,C0,[1],50.1 µg/mL and 44.301 µg/mL
same,Cl,[1],0.038 L/h/kg and 0.0343 L/h/kg
same,MRT0-inf,[1],4.15 h and 4.40 h
same,MRT0-last,[1],4.01 h and 4.28 h
same,T1/2,[1],3.29 h and 3.26 h
same,Vdss,[1],0.158 L/kg and 0.151 L/kg
same,"AUCExtra, Mean IV","IV 4 mg/Kg, mean of 3 mice",0.614%
same,"AUMCExtra, Mean IV","IV 4 mg/Kg, mean of 3 mice",4.15%
same,"C0, Mean IV","IV 4 mg/Kg, mean of 3 mice",52.245 µg/mL
same,"Tlast, Mean IV","IV 4 mg/Kg, mean of 3 mice",24.0 h
same,"Plasma concentration, PO Time 0.250 h","PO 20 mg/Kg, 0.250 h post dosing, individual mice M4-M6, 20 mg/kg",84.3 µg/mL and 27.4 µg/mL and 69.7 µg/mL
same,"Plasma concentration, PO Time 0.500 h","PO 20 mg/Kg, 0.500 h post dosing, individual mice M4-M6, 20 mg/kg",70.3 µg/mL and 24 µg/mL and 56.6 µg/mL
same,"Plasma concentration, PO Time 1.00 h","PO 20 mg/Kg, 1.00 h post dosing, individual mice M4-M6, 20 mg/kg",60.4 µg/mL and 20.9 µg/mL and 45.7 µg/mL
same,"Plasma concentration, PO Time 2.00 h","PO 20 mg/Kg, 2.00 h post dosing, individual mice M4-M6, 20 mg/kg",54.9 µg/mL and 19.1 µg/mL and 53.8 µg/mL
same,"Plasma concentration, PO Time 4.00 h","PO 20 mg/Kg, 4.00 h post dosing, individual mice M4-M6, 20 mg/kg",32.9 µg/mL and 14.1 µg/mL and 32.8 µg/mL
same,"Plasma concentration, PO Time 8.00 h","PO 20 mg/Kg, 8.00 h post dosing, individual mice M4-M6, 20 mg/kg",14.1 µg/mL and 12.8 µg/mL and 29.9 µg/mL
same,"Plasma concentration, PO Time 24.0 h","PO 20 mg/Kg, 24.0 h post dosing, individual mice M4-M6, 20 mg/kg",0.66 µg/mL and 2.37 µg/mL and 1.37 µg/mL
same,Tlast,"PO 20 mg/Kg, individual mice M4-M6",24.0 h
same,AUC0-inf,[2],251.697 µg·h/mL and 466.063 µg·h/mL
same,AUC0-last,[2],364.947 µg·h/mL and 226.687 µg·h/mL and 457.808 µg·h/mL
same,AUCExtra,[2],0.922% and 9.94% and 1.77%
same,AUMCExtra,[2],5.35% and 32.1% and 7.78%
same,Cmax,[2],84.3 µg/mL and 27.4 µg/mL and 69.7 µg/mL
same,MRT0-last,[2],8.07 h and 6.41 h
same,T1/2,[2],3.57 h and 7.31 h and 4.18 h
same,"AUCExtra, Mean PO","PO 20 mg/Kg, mean of 3 mice",4.21%
same,"AUMCExtra, Mean PO","PO 20 mg/Kg, mean of 3 mice",15.1%
same,"Tlast, Mean PO","PO 20 mg/Kg, mean of 3 mice",24.0 h
